{"source": "ChEMBL document CHEMBL1152371", "about": "“Effect of varying chain length between P(1) and P(1') position of tripeptidomimics on activity of angiotensin-converting enzyme inhibitors” (Bioorg Med Chem Lett, 2009)", "target": "T1, Angiotensin-converting enzyme (Oryctolagus cuniculus) (UniProt P12822)", "T1 sequence (whole entry)": "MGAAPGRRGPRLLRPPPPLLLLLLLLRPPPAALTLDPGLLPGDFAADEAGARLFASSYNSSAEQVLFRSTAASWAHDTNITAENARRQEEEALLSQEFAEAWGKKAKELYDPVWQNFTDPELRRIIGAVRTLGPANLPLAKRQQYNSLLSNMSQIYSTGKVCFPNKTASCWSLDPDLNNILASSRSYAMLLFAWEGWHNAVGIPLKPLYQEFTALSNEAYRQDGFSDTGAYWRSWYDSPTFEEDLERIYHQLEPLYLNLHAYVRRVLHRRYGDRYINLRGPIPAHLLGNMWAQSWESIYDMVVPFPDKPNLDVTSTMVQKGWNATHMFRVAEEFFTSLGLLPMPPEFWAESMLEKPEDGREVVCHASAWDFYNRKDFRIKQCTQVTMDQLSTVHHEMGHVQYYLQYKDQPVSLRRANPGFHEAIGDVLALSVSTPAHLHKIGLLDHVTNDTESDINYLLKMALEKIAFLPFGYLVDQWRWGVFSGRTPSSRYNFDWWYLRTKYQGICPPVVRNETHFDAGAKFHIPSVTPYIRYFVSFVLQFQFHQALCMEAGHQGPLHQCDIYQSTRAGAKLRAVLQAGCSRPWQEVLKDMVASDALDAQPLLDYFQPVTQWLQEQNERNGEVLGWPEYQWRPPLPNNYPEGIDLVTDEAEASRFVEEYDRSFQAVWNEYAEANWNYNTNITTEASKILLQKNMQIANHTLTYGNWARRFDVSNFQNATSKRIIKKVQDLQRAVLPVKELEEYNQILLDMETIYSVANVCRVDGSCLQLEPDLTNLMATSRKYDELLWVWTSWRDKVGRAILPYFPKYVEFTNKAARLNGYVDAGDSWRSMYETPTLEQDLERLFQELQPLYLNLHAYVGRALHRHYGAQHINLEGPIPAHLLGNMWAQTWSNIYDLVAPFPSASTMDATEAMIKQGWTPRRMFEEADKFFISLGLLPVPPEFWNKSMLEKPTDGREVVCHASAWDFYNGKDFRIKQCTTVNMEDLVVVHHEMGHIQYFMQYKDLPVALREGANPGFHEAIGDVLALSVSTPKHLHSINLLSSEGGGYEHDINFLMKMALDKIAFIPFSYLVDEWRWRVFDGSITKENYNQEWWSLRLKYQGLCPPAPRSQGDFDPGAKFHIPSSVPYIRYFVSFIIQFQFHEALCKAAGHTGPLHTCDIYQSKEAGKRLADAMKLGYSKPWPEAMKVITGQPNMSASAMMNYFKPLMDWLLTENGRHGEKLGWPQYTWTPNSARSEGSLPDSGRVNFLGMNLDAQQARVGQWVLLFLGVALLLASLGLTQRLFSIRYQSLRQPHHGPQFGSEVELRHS", "experiment": "Inhibition of rabbit lung ACE activity relative to control", "parameters": "concentration or dose not given beside the values", "settings": "concentration not given here", "data": [{"smiles": "NCCC[C@H](NC(=O)CCCc1ccsc1)C(=O)N1CCC[C@H]1C(=O)O", "values": [{"measurement": "inhibition", "result": 37.2, "unit": "%"}]}, {"smiles": "NCCC[C@H](NC(=O)CCc1c[nH]c2ccccc12)C(=O)N1CCC[C@H]1C(=O)O", "values": [{"measurement": "inhibition", "result": 59.7, "unit": "%"}]}, {"smiles": "NCCC[C@H](NC(=O)Cc1c[nH]c2ccccc12)C(=O)N1CCC[C@H]1C(=O)O", "values": [{"measurement": "inhibition", "result": 38.5, "unit": "%"}]}, {"smiles": "NCCC[C@H](NC(=O)c1ccsc1)C(=O)N1CCC[C@H]1C(=O)O", "values": [{"measurement": "inhibition", "result": 23.7, "unit": "%"}]}, {"smiles": "NCCC[C@H](NC(=O)Cc1ccsc1)C(=O)N1CCC[C@H]1C(=O)O", "values": [{"measurement": "inhibition", "result": 35.6, "unit": "%"}]}, {"smiles": "NCCC[C@H](NC(=O)c1c[nH]c2ccccc12)C(=O)N1CCC[C@H]1C(=O)O", "values": [{"measurement": "inhibition", "result": 27.7, "unit": "%"}]}, {"smiles": "NCCC[C@H](NC(=O)CCCc1c[nH]c2ccccc12)C(=O)N1CCC[C@H]1C(=O)O", "values": [{"measurement": "inhibition", "result": 33.8, "unit": "%"}]}, {"smiles": "NCCC[C@H](NC(=O)CCc1ccsc1)C(=O)N1CCC[C@H]1C(=O)O", "values": [{"measurement": "inhibition", "result": 72.7, "unit": "%"}]}]}
